Marks after values point to notes of the source that are not given here.
Legend:
[1] = BALB/c mouse model bearing CT26 transplanted tumor: body weight of mice; format: in vivo; settings: for Body weight: Compound A 20 mpk once a day + IR 2 Gy for 5 consecutive days, in g (unit assumed)
Text: (§1) Female BALB/c mice were selected to constitute a CT26 subcutaneous transplanted tumor model by subcutaneous injection of tumor cells. When the mean tumor volume reached 150-200 mm^3, mice were divided into 3 experimental groups: Vehicle, IR, and (Compound A (20 mpk)+IR), respectively, with 8 animals per group and 24 animals in total for grouping experiments. Each irradiated group was given an irradiation dose of 2 Gy for 5 consecutive days, the administration group was given the corresponding drug once a day for 39 consecutive days, and the Vehicle group was given a vehicle.
2.2 Body weight of mice: mice were weighed at least twice a week during a drug treatment cycle.

CT26 transplanted tumor = experiment: Inhibition experiment using BALB/c mouse model bearing CT26 transplanted tumor: tumor volume; format: in vivo, BALB/c mice; settings: for Tumor volume (Mean ± SEM): Compound A 20 mpk once a day + IR 2 Gy for 5 consecutive days
Text: as §1
2.1 Tumor volume: during a drug treatment cycle, the long diameter (a) and short diameter (b) of tumor tissue were measured using an electronic vernier caliper to calculate the volume of the tumor (tumor volume=0.5×a×b^2).

[2] = compound A in combination with IR

SMILES: CCn1c(=O)n(C2CCOCC2)c2nc(Nc3cc(F)c(C(N)=O)cc3C)ncc21 [Compound A]
- Body weight ([1]; D0): 16.8 ± 0.3
- Body weight ([1]; D4): 17.1 ± 0.3
- Body weight ([1]; D7): 16.0 ± 0.2
- Body weight ([1]; D11): 17.6 ± 0.2
- Body weight ([1]; D14): 17.9 ± 0.2
- Body weight ([1]; D18): 18.6 ± 0.2
- Body weight ([1]; D21): 19.1 ± 0.2
- Body weight ([1]; D25): 19.4 ± 0.3
- Body weight ([1]; D28): 19.7 ± 0.2
- Body weight ([1]; D32): 19.9 ± 0.4
- Body weight ([1]; D35): 20.1 ± 0.3
- Body weight ([1]; D39): 19.6 ± 0.3
- Tolerance of the animals ([1]; compound A in combination with radiotherapy): good tolerance
- Effect on body weight gain of animals ([1]; compound A in combination with radiotherapy, to D39): no effect on body weight gain
- Tumor volume (Mean ± SEM) (CT26 transplanted tumor; D0 (day of grouping)): 168 ± 22 mm^3
- Tumor volume (Mean ± SEM) (CT26 transplanted tumor; D4): 260 ± 41 mm^3
- Tumor volume (Mean ± SEM) (CT26 transplanted tumor; D7): 284 ± 47* mm^3
- Tumor volume (Mean ± SEM) (CT26 transplanted tumor; D11): 253 ± 56*** mm^3
- Tumor volume (Mean ± SEM) (CT26 transplanted tumor; D14): 155 ± 28*** mm^3
- Tumor volume (Mean ± SEM) (CT26 transplanted tumor; D18): 101 ± 33***# mm^3
- Tumor volume (Mean ± SEM) (CT26 transplanted tumor; D21): 93 ± 34# mm^3
- Tumor volume (Mean ± SEM) (CT26 transplanted tumor; D25): 169 ± 71# mm^3
- Tumor volume (Mean ± SEM) (CT26 transplanted tumor; D28): 288 ± 105# mm^3
- Tumor volume (Mean ± SEM) (CT26 transplanted tumor; D32): 462 ± 148# mm^3
- Tumor volume (Mean ± SEM) (CT26 transplanted tumor; D35): 605 ± 189# mm^3
- Tumor volume (Mean ± SEM) (CT26 transplanted tumor; D39): 828 ± 247# mm^3
- Effect on the anti-tumor efficacy of radiotherapy (CT26 transplanted tumor; [2]): significantly enhance the anti-tumor efficacy of radiotherapy
- Tumor volume compared to the Vehicle and IR groups (CT26 transplanted tumor; [2]): significantly reduced
